Measurements taken from patent publication US7846959B2, “Raf modulators and methods of use” (Exelixis, Inc., priority 2004, dated 2010).
Like-named read-outs stand apart in the source and are kept apart here.

Key:
c-Raf = c-Raf (Homo sapiens, UniProt P04049); test: Luciferase-coupled chemiluminescence kinase assay (ATP consumption), c-Raf; type: biochemical
Outline: (§1)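 Pre-incub. kinase […] + cpd, 30 min RT (20 mM Tris pH 7.5, 10 mM MgCl2, 0.03% TX-100, 1 mM DTT). Start w/ ATP, 3 h ambient. Luciferase-luciferin mix added and luminescence read. Total ATP use 25-60%. IC50 derived.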

B-Raf = B-Raf (Homo sapiens, UniProt P15056); test: Luciferase-coupled chemiluminescence kinase assay (ATP consumption), B-Raf; type: biochemical
B-Raf, sequence (P15056 whole entry): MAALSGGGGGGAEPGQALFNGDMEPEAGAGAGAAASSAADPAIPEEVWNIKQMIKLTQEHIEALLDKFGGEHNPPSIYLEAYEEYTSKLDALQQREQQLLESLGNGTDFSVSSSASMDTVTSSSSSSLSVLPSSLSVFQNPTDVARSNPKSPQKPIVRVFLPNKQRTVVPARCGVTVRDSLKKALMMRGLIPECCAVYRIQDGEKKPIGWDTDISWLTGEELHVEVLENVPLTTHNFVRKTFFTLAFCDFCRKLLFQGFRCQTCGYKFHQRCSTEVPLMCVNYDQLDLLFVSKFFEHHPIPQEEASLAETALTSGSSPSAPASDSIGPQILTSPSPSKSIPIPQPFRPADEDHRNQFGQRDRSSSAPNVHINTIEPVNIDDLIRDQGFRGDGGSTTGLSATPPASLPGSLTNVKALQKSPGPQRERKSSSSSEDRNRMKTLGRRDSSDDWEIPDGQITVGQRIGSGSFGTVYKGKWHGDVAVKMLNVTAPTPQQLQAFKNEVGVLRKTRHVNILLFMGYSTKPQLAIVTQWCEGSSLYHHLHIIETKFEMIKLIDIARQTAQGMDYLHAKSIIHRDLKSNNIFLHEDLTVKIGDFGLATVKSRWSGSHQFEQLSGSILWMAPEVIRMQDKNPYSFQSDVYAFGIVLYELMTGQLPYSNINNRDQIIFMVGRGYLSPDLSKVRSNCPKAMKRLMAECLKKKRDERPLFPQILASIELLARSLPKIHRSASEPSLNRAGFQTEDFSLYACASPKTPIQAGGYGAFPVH
Outline: as §1

[1] = read-out: cRaf-1 (inhibition indicated as IC50)
[2] = read-out: bRaf (inhibition indicated as IC50)

c-Raf, sequence (P04049 whole entry): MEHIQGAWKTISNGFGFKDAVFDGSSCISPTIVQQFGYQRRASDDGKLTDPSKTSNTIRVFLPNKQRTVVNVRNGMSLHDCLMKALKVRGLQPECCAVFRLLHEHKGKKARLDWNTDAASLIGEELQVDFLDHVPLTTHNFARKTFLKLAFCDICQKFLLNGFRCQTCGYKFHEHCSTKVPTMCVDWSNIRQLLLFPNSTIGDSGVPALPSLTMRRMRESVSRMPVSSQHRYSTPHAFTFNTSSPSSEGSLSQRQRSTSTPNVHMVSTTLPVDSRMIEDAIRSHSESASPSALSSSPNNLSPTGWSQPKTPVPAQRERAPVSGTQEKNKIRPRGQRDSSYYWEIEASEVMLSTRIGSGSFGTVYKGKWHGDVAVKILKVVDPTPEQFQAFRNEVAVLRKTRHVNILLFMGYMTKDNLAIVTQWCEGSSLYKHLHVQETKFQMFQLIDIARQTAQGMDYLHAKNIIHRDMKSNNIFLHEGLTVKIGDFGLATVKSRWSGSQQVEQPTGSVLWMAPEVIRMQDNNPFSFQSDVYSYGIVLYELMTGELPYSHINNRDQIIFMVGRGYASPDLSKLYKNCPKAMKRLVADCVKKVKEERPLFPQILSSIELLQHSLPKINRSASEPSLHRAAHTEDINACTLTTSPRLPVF

Compound	IC50 (c-Raf; read-out: cRaf-1 IC50) [µM]	IC50 (B-Raf; read-out: bRaf IC50) [µM]	IC50 (c-Raf; [1]) [µM]	IC50 (B-Raf; [2]) [µM]
CN(C)Cc1cccc(N2C(=O)c3ccccc3C2(O)c2ccc3c(c2)NC(=O)CO3)c1 (stereo not shown) [Entry 86, 6-(2-{3-[(dimethylamino)methyl]phenyl}-1-hydroxy-3-oxo-2,3-dihydro-1H-isoindol-1-yl)-2H-1,4-benzoxazin-3(4H)-one]	1 to 10	1 to 10		
COC(=O)Nc1nc2cc(C3(O)c4ccccc4C(=O)N3C(C)c3cccs3)ccc2[nH]1 (stereo not shown) [Entry 173, methyl (5-{1-hydroxy-3-oxo-2-[1-(2-thienyl)ethyl]-2,3-dihydro-1H-isoindol-1-yl}-1H-benzimidazol-2-yl)carbamate]	< 0.1	< 0.1		
O=C1COc2ccc(C3(O)c4ccccc4C(=O)N3c3cccc(I)c3)cc2N1 (stereo not shown) [Entry 40, 6-[1-hydroxy-2-(3-iodophenyl)-3-oxo-2,3-dihydro-1H-isoindol-1-yl]-2H-1,4-benzoxazin-3(4H)-one]	< 0.1	0.1 to 1		
O=C(Nc1nc2ccc(C3(O)c4ccccc4C(=O)N3c3cccc(Cl)c3F)cc2[nH]1)OC1CCC1 (stereo not shown) [Entry 330, cyclobutyl {6-[2-(3-chloro-2-fluorophenyl)-1-hydroxy-3-oxo-2,3-dihydro-1H-isoindol-1-yl]-1H-benzimidazol-2-yl}carbamate]			< 0.1	< 0.1
O=C(CCCOCc1ccccc1)Nc1nc2cc(C3(O)c4ccccc4C(=O)N3Cc3ccccc3)ccc2[nH]1 (stereo not shown) [Entry 262, N-{5-[1-hydroxy-3-oxo-2-(phenylmethyl)-2,3-dihydro-1H-isoindol-1-yl]-1H-benzimidazol-2-yl}-4-[(phenylmethyl)oxy]butanamide]	< 0.1	< 0.1		
CCOC(=O)Nc1nc2cc(C3(O)c4ccccc4C(=O)N3c3cccc(Cl)c3F)ccc2o1 (stereo not shown) [Entry 357, ethyl {5-[2-(3-chloro-2-fluorophenyl)-1-hydroxy-3-oxo-2,3-dihydro-1H-isoindol-1-yl]-1,3-benzoxazol-2-yl}carbamate]			0.1 to 1	< 0.1
O=C(Nc1nc2ccc(C3c4ccccc4C(=O)N3c3cccc(Br)c3)cc2[nH]1)OCCN1CCCCC1 (stereo not shown) [Entry 295, 2-piperidin-1-ylethyl {6-[2-(3-bromophenyl)-3-oxo-2,3-dihydro-1H-isoindol-1-yl]-1H-benzimidazol-2-yl}carbamate]			< 0.1	0.1 to 1
CCc1cc(N2C(=O)c3ccccc3C2(O)c2ccc3[nH]c(NC(=O)OC)nc3c2)ccc1F (stereo not shown) [Entry 238, methyl {5-[2-(3-ethyl-4-fluorophenyl)-1-hydroxy-3-oxo-2,3-dihydro-1H-isoindol-1-yl]-1H-benzimidazol-2-yl}carbamate]	< 0.1	< 0.1		
CC1(C)OC[C@@H](COC(=O)Nc2nc3cc(C4(O)c5ccccc5C(=O)N4Cc4ccccc4)ccc3[nH]2)O1 (stereo partly drawn) [Entry 229, [(4S)-2,2-dimethyl-1,3-dioxolan-4-yl]methyl {5-[1-hydroxy-3-oxo-2-(phenylmethyl)-2,3-dihydro-1H-isoindol-1-yl]-1H-benzimidazol-2-yl}carbamate]	< 0.1	< 0.1		
COC(=O)Nc1nc2cc(C3(O)c4ccccc4C(=O)N3c3cc(OC)ccc3C)ccc2[nH]1 (stereo not shown) [Entry 368, methyl (5-{1-hydroxy-2-[2-methyl-5-(methyloxy)phenyl]-3-oxo-2,3-dihydro-1H-isoindol-1-yl}-1H-benzimidazol-2-yl)carbamate]			< 0.1	< 0.1
O=C(CCCN1CCCCC1)Nc1nc2cc(C3(O)c4ccccc4C(=O)N3Cc3ccccc3)ccc2[nH]1 (stereo not shown) [Entry 263, N-{5-[1-hydroxy-3-oxo-2-(phenylmethyl)-2,3-dihydro-1H-isoindol-1-yl]-1H-benzimidazol-2-yl}-4-piperidin-1-ylbutanamide]	< 0.1	< 0.1		
Cc1cccc(N2C(=O)c3ccccc3C2(O)c2ccc3nc(Nc4ncccn4)[nH]c3c2)c1 (stereo not shown) [Entry 374, 3-hydroxy-2-(3-methylphenyl)-3-[2-(pyrimidin-2-ylamino)-1H-benzimidazol-6-yl]-2,3-dihydro-1H-isoindol-1-one]			< 0.1	< 0.1
COC(=O)Nc1nc2cc(C3(O)c4ccccc4C(=O)N3c3cccc(Cc4ccccc4)c3)ccc2[nH]1 (stereo not shown) [Entry 232, methyl (5-{1-hydroxy-3-oxo-2-[3-(phenylmethyl)phenyl]-2,3-dihydro-1H-isoindol-1-yl}-1H-benzimidazol-2-yl)carbamate]	< 0.1	< 0.1		
CCN(CC)CC#CCOC(=O)Nc1nc2ccc(C3(O)c4ccccc4C(=O)N3c3cccc(Cl)c3F)cc2[nH]1 (stereo not shown) [Entry 321, 4-(diethylamino)but-2-yn-1-yl {6-[2-(3-chloro-2-fluorophenyl)-1-hydroxy-3-oxo-2,3-dihydro-1H-isoindol-1-yl]-1H-benzimidazol-2-yl}carbamate]			< 0.1	< 0.1
COC(=O)Nc1nc2cc(C3(O)c4ccccc4C(=O)N3c3cccc(C#N)c3)ccc2[nH]1 (stereo not shown) [Entry 225, methyl {5-[2-(3-cyanophenyl)-1-hydroxy-3-oxo-2,3-dihydro-1H-isoindol-1-yl]-1H-benzimidazol-2-yl}carbamate]	0.1 to 1	0.1 to 1		
COC(=O)Nc1nc2cc(C3(O)c4ccccc4C(=O)N3c3cc(C)cc(C(F)(F)F)c3)ccc2[nH]1 (stereo not shown) [Entry 175, methyl (5-{1-hydroxy-2-[3-methyl-5-(trifluoromethyl)phenyl]-3-oxo-2,3-dihydro-1H-isoindol-1-yl}-1H-benzimidazol-2-yl)carbamate]	< 0.1	< 0.1		
CCNC(=O)Nc1nc2cc(C3(O)c4ccccc4C(=O)N3Cc3ccccc3)ccc2[nH]1 (stereo not shown) [Entry 149, N-ethyl-N′-{5-[1-hydroxy-3-oxo-2-(phenylmethyl)-2,3-dihydro-1H-isoindol-1-yl]-1H-benzimidazol-2-yl}urea]	< 0.1	< 0.1		
COC(=O)Nc1nc2cc(C3(O)NC(=O)c4ccccc43)ccc2[nH]1 (stereo not shown) [Entry 102, methyl [5-(1-hydroxy-3-oxo-2,3-dihydro-1H-isoindol-1-yl)-1H-benzimidazol-2-yl]carbamate]	≥ 10	≥ 10		
COC(=O)Nc1nc2cc(C3(O)c4ccccc4C(=O)N3Cc3ccccc3F)ccc2[nH]1 (stereo not shown) [Entry 123, methyl (5-{2-[(2-fluorophenyl)methyl]-1-hydroxy-3-oxo-2,3-dihydro-1H-isoindol-1-yl}-1H-benzimidazol-2-yl)carbamate]	< 0.1	< 0.1		
COC(=O)Nc1nc2cc(C3(O)c4ccccc4C(=O)N3Cc3cccc(Cl)c3)ccc2[nH]1 (stereo not shown) [Entry 122, methyl (5-{2-[(3-chlorophenyl)methyl]-1-hydroxy-3-oxo-2,3-dihydro-1H-isoindol-1-yl}-1H-benzimidazol-2-yl)carbamate]	< 0.1	< 0.1		
COC(=O)Nc1nc2cc(C3(O)c4ccccc4C(=O)N3c3cccc(C(F)(F)F)c3)ccc2[nH]1 (stereo not shown) [Entry 147, methyl (5-{1-hydroxy-3-oxo-2-[3-(trifluoromethyl)phenyl]-2,3-dihydro-1H-isoindol-1-yl}-1H-benzimidazol-2-yl)carbamate]	< 0.1	< 0.1		
O=C1COc2ccc(C3(O)c4ccccc4C(=O)N3c3cccc(Br)c3)cc2N1 (stereo not shown) [Entry 41, 6-[2-(3-bromophenyl)-1-hydroxy-3-oxo-2,3-dihydro-1H-isoindol-1-yl]-2H-1,4-benzoxazin-3(4H)-one]	< 0.1	0.1 to 1		
COC(=O)Nc1nc2ccc(C(=O)c3ccccc3C(=O)Nc3ccc(F)c(C)c3)cc2[nH]1 [Entry 408, methyl {6-[(2-{[(4-fluoro-3-methylphenyl)amino]carbonyl}phenyl)carbonyl]-1H-benzimidazol-2-yl}carbamate]			< 0.1	< 0.1
COC(=O)Nc1nc2cc(C3(O)c4ccccc4C(=O)N3C(C)c3sccc3Cl)ccc2[nH]1 (stereo not shown) [Entry 241, methyl (5-{2-[1-(3-chloro-2-thienyl)ethyl]-1-hydroxy-3-oxo-2,3-dihydro-1H-isoindol-1-yl}-1H-benzimidazol-2-yl)carbamate]	1 to 10	1 to 10		
CCOC(=O)Nc1nc2ccc(C3(O)c4ccccc4C(=O)N3c3cccc(Cl)c3F)cc2[nH]1 (stereo not shown) [Entry 340, ethyl {6-[2-(3-chloro-2-fluorophenyl)-1-hydroxy-3-oxo-2,3-dihydro-1H-isoindol-1-yl]-1H-benzimidazol-2-yl}carbamate]			< 0.1	< 0.1
CC(C)(COCc1ccccc1)COC(=O)Nc1nc2cc(C3(O)c4ccccc4C(=O)N3Cc3ccccc3)ccc2[nH]1 (stereo not shown) [Entry 223, 2,2-dimethyl-3-[(phenylmethyl)oxy]propyl {5-[1-hydroxy-3-oxo-2-(phenylmethyl)-2,3-dihydro-1H-isoindol-1-yl]-1H-benzimidazol-2-yl}carbamate]	< 0.1	0.1 to 1		
C#Cc1cccc(N2C(=O)c3c(F)ccc(F)c3C2(O)c2ccc3[nH]c(NC(=O)OC)nc3c2)c1F (stereo not shown) [Entry 355, methyl {5-[2-(3-ethynyl-2-fluorophenyl)-4,7-difluoro-1-hydroxy-3-oxo-2,3-dihydro-1H-isoindol-1-yl]-1H-benzimidazol-2-yl}carbamate]			< 0.1	< 0.1
COC(=O)Nc1nc2ccc(C3(O)c4ccccc4C(=O)N3c3cccc(OC)c3F)cc2[nH]1 (stereo not shown) [Entry 367, methyl (6-{2-[2-fluoro-3-(methyloxy)phenyl]-1-hydroxy-3-oxo-2,3-dihydro-1H-isoindol-1-yl}-1H-benzimidazol-2-yl)carbamate]			0.1 to 1	< 0.1
COC(=O)Nc1nc2cc(C3(O)c4ccccc4C(=O)N3Cc3cccc(C)c3)ccc2[nH]1 (stereo not shown) [Entry 131, methyl (5-{1-hydroxy-2-[(3-methylphenyl)methyl]-3-oxo-2,3-dihydro-1H-isoindol-1-yl}-1H-benzimidazol-2-yl)carbamate]	< 0.1	< 0.1		
